In US10954217B2 (priority 2016, dated 2021):

Legend:
Assay in all cases: biochemical
[1] = target: 5-HT2B (Homo sapiens (Human), UniProt P41595)
[2] = target: 5-HT2C (Homo sapiens (Human), UniProt P28335)
[3] = target: Alpha2A (Homo sapiens (Human), UniProt P08913)
[4] = target: Alpha2B (Homo sapiens (Human), UniProt P18089)
[5] = target: Alpha2C (Homo sapiens (Human), UniProt P18825)
[6] = target: H2 (Homo sapiens (Human), UniProt P25021)
[7] = target: 5-HT2A (Homo sapiens (Human), UniProt P28223)
[8] = target: Alpha1B (Homo sapiens (Human), UniProt P35368)
[9] = target: D3 (Homo sapiens (Human), UniProt P35462)
[10] = target: M2 (Homo sapiens (Human), UniProt P08172)
[11] = target: M3 (Homo sapiens (Human), UniProt P20309)
[12] = target: M4 (Homo sapiens (Human), UniProt P08173)
[13] = target: M5 (Homo sapiens (Human), UniProt P08912)
[14] = target: Alpha1D (Homo sapiens (Human), UniProt P25100)
[15] = target: H1 (Homo sapiens (Human), UniProt P35367)
[16] = target: KOR (Homo sapiens (Human), UniProt P41145)
[17] = target: D4 (Homo sapiens (Human), UniProt P21917)

| Ki [1] [nM] | Ki [2] [nM] | Ki [3] [nM] | Ki [4] [nM] | Ki [5] [nM] | Ki [6] [nM] | Ki [7] [nM] | Ki [8] [nM] | Ki [9] [nM] | Ki [10] [nM] | Ki [11] [nM] | Ki [12] [nM] | Ki [13] [nM] | Ki [14] [nM] | Ki [15] [nM] | Ki [16] [nM] | Ki [17] [nM] | SMILES |
| --- | --- | --- | --- | --- | --- | --- | --- | --- | --- | --- | --- | --- | --- | --- | --- | --- | --- |
| 702 | 1380 | 2340 | 6800 | 4540 | 1180 |  |  |  |  |  |  |  |  |  |  |  | Clc1cc(Cl)cc(CN2Cc3ccc(N4CCOCC4)cc3C2)c1 |
|  |  |  |  | 168 |  | 513 | 1390 | 220 | 4200 | 710 | 1890 | 1290 |  |  |  |  | C=CCN1CCN(c2ccc3c(c2)CN(S(=O)(=O)c2cc(Cl)cc(Cl)c2)C3)CC1 |
|  | 833 |  |  |  |  | 520 |  | 599 | 3890 | 1960 | 3510 | 2090 | 6470 | 487 | 8490 |  | CN1CCN(c2ccc3c(c2)CN(S(=O)(=O)c2cc(Cl)cc(Cl)c2)C3)CC1 |
|  |  |  |  |  |  |  |  | 3230 |  |  |  |  |  | 1330 |  | 973 | Clc1cc(Cl)cc(CN2CCc3ccc(N4CCOCC4)cc3C2)c1 |
| 206 | 1080 |  |  |  |  |  |  | 271 | 1650 | 2020 | 2280 | 2320 |  | 4780 | 2560 |  | CN1CCN(c2ccc3c(c2)CN(S(=O)(=O)c2cc(Cl)cc(Cl)c2)CC3)CC1 |
| 397 |  |  |  |  |  |  |  | 107 |  | 1950 |  | 3580 | 3500 | 241 | 2200 |  | C=CCN1CCN(c2ccc3c(c2)CN(S(=O)(=O)c2cc(Cl)cc(Cl)c2)CC3)CC1 |
